Patent publication US12091425B2 (AMGEN INC., priority 2016, dated 2024)

Experiments:
[1] = target: T1, Mcl-1/Bim interaction, recombinant human Mcl-1 (171-327) (Homo sapiens, UniProt Q07820); test: Cell free Mcl-1: Bim Affinity Assay (Mcl-1 HTRF); type: binding
T1 construct: made in house
Summary of the method: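 Displacement of biotinylated Bim 51-76 peptide is followed by TR-FRET. Incubation runs overnight. Duplicate points are fitted with a four-parameter sigmoid to yield IC50.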

[2] = test system: OPM-2 human multiple myeloma cell line; test: Cell Viability Assay (OPM-2 10 FBS); type: cell-based; conditions: Homo sapiens, OPM-2 cells, CellTiter-Glo
Summary of the method: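 IC50 from 4-parameter logistic fit of CellTiter-Glo luminescence. 3000 cells/well, 10% FBS medium, serial compound dilutions, 16 h, 37 °C/5% CO2; read 25 min post-reagent.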

[3] = cell free Mcl-1:Bim TR-FRET, recombinant human Mcl-1 (171-327)
[4] = TR-FRET, 0.1 nM Mcl-1 (171-327), 0.05 nM biotin-Bim (51-76)

T1 sequence (Q07820 171-327): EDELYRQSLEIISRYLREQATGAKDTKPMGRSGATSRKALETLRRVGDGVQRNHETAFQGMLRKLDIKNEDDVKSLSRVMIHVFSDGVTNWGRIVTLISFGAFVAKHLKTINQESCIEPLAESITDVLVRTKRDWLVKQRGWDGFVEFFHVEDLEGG

`C[C@@H]1[C@@H](C)C/C=C/[C@H](OCCN2CCN(S(C)(=O)=O)CC2)[C@@H]2CC[C@H]2CN2C[C@@]3(CCCc4cc(Cl)ccc43)COc3ccc(cc32)C(=O)NS1(=O)=O` [Example 734] was tested, and the IC50 [1, 3] was 1.12 nM and the IC50 ([2]; OPM-2, 16 h, 16 h) was 134 nM.

In the case of `C[C@@H]1[C@@H](C)C/C=C/[C@H](OCCNS(C)(=O)=O)[C@@H]2CC[C@H]2CN2C[C@@]3(CCCc4cc(Cl)ccc43)COc3ccc(cc32)C(=O)NS1(=O)=O` [Example 735, N-(2-(((1S,3′R,6′R,7′S,8′E,11′S,12′R)-6-chloro-11′,12′-dimethyl-13′, 13′-dioxido-15′-oxo-3,4-dihydro-2H-spiro[naphthalene-1,22′-[20]oxa[13]thia[1,14]diazatetracyclo[14.7.2.0^3,6.0^19,24]pentacosa[8,16,18,24]tetraen]-7′-yl)oxy)ethyl)Methanesulfonamide], the IC50 [1, 3] is reported as 0.681 nM and the IC50 ([2]; OPM-2, 16 h, 16 h) is reported as 202 nM.

For `CCOC(=O)NCCO[C@H]1/C=C/C[C@H](C)[C@@H](C)S(=O)(=O)NC(=O)c2ccc3c(c2)N(C[C@@H]2CC[C@H]21)C[C@@]1(CCCc2cc(Cl)ccc21)CO3` [Example 736, ethyl (2-(((1S,3′R,6′R,7′S,8′E,11′S,12′R)-6-chloro-11′,12′-dimethyl-13′, 13′-dioxido-15′-oxo-3,4-dihydro-2H-spiro[naphthalene-1,22′-[20]oxa[13]thia[1,14]diazatetracyclo[14.7.2.0^3,6.0^19,24]pentacosa[8,16,18,24]tetraen]-7′-yl)oxy)ethyl)carbamate], the IC50 [1, 3] was 0.891 nM and the IC50 ([2]; OPM-2, 16 h, 16 h) was 192 nM.

Work on `C[C@@H]1[C@@H](C)C/C=C/[C@H](OCCC2CCN(C(=O)OC(C)(C)C)CC2)[C@@H]2CC[C@H]2CN2C[C@@]3(CCCc4cc(Cl)ccc43)COc3ccc(cc32)C(=O)NS1(=O)=O` [Example 737, tert-butyl 4-(2-(((1S,3′R,6′R,7′S,8′E,11′S,12′R)-6-chloro-11′,12′-dimethyl-13′,13′-dioxido-15′-oxo-3,4-dihydro-2H-spiro[naphthalene-1,22′-[20]oxa[13]thia[1,14]diazatetracyclo[14.7.2.0˜3,6˜.0˜19,24˜]pentacosa[8,16,18,24]tetraen]-7′-yl)oxy)ethyl)-1-piperidinecarboxylate] yielded an IC50 [1, 3] of 15.1 nM and an IC50 ([2]; OPM-2, 16 h, 16 h) of 3390 nM.

`CCOC(=O)CO[C@H]1/C=C/C[C@H](C)[C@H](C)S(=O)(=O)NC(=O)c2ccc3c(c2)N(C[C@@H]2CC[C@H]21)C[C@@]1(CCCc2cc(Cl)ccc21)CO3` [Example 738, ethyl (((1S,3′R,6′R,7′S,8′E,11′S,12′S)-6-chloro-11′,12′-dimethyl-13′,13′-dioxido-15′-oxo-3,4-dihydro-2H-spiro[naphthalene-1,22′-[20]oxa[13]thia[1,14]diazatetracyclo[14.7.2.0^3,6.0^19,24]pentacosa[8,16,18,24]tetraen]-7′-yl)oxy)acetate] was tested, and the IC50 [1, 3] was 3.21 nM and the IC50 ([2]; OPM-2, 16 h, 16 h) was 1760 nM.

With `C[C@H]1C/C=C/[C@H](OCC(=O)O)[C@@H]2CC[C@H]2CN2C[C@@]3(CCCc4cc(Cl)ccc43)COc3ccc(cc32)C(=O)NS(=O)(=O)[C@H]1C` [Example 739, (((1S,3′R,6′R,7′S,8′E,11′S,12′S)-6-chloro-11′,12′-dimethyl-13′,13′-dioxido-15′-oxo-3,4-dihydro-2H-spiro[naphthalene-1,22′-[20]oxa[13]thia [1,14]diazatetracyclo[14.7.2.0^3,6.0^19,24]pentacosa[8,16,18,24]tetraen]-7′-yl)oxy)acetic Acid] the IC50 [1, 3] was 0.141 nM and the IC50 ([2]; OPM-2, 16 h, 16 h) was 24200 nM.

`CC[C@@H]1[C@@H](C)C/C=C/[C@H](OCCOC)[C@@H]2CC[C@H]2CN2C[C@@]3(CCCc4cc(Cl)ccc43)COc3ccc(cc32)C(=O)NS1(=O)=O` [Example 740, (1S,3′R,6′R,7′S,8′E,11′S,12′R)-6-chloro-12′-ethyl-7′-(2-methoxyethoxy)-11′-methyl-3,4-dihydro-2H,15′H-spiro[naphthalene-1,22′-[20]oxa[13]thia[1,14]diazatetracyclo[14.7.2.0^3,6.0^19,24]pentacosa [8,16,18,24]tetraen]-15′-one-13′, 13′-dioxide] showed an IC50 [1, 3] of 0.543 nM and an IC50 ([2]; OPM-2, 16 h, 16 h) of 170 nM.

`CC[C@@H]1C/C=C/[C@H](OCC(=O)OC)[C@@H]2CC[C@H]2CN2C[C@@]3(CCCc4cc(Cl)ccc43)COc3ccc(cc32)C(=O)NS(=O)(=O)C1` [Example 741, methyl (((1S,3′R,6′R,7′S,8′E,11′R)-6-chloro-11′-ethyl-13′,13′-dioxido-15′-oxo-3,4-dihydro-2H-spiro[naphthalene-1,22′-[20]oxa[13]thia [1,14]diazatetracyclo[14.7.2.0^3,6.0^19,24]pentacosa[8,16,18,24]tetraen]-7′-yl)oxy)acetate] was tested, and the IC50 [1, 3] was 13.5 nM and the IC50 ([2]; OPM-2, 16 h, 16 h) was 3110 nM.

`CC[C@@H]1C/C=C/[C@H](OCC(=O)O)[C@@H]2CC[C@H]2CN2C[C@@]3(CCCc4cc(Cl)ccc43)COc3ccc(cc32)C(=O)NS1(=O)=O` [Example 764, (((1S,3′R,6′R,7′S,8′E,11′R)-6-chloro-11′-ethyl-12′,12′-dioxido-14′-oxo-3,4-dihydro-2H-spiro[naphthalene-1,21′-[19]oxa[12]thia[1,13]diazatetracyclo[13.7.2.0^3,6.0^18,23]tetracosa[8,15,17,23]tetraen]-7′-yl)oxy)acetic Acid] was tested, and the IC50 [1, 3] was 0.113 nM and the IC50 ([2]; OPM-2, 16 h, 16 h) was 11200 nM.

Work on `COc1ccc(CNCCO[C@H]2/C=C/C[C@H](C)[C@@H](C)S(=O)(=O)NC(=O)c3ccc4c(c3)N(C[C@@H]3CC[C@H]32)C[C@@]2(CCCc3cc(Cl)ccc32)CO4)c(OC)c1` [Example 777, (1S,3′R,6′R,7′S,8′E,11′S,12′R)-6-chloro-7′-(2-((2,4-dimethoxybenzyl)amino)ethoxy)-11′,12′-dimethyl-3,4-dihydro-2H,15′H-spiro[naphthalene-1,22′-[20]oxa[13]thia[1,14]diazatetracyclo[14.7.2.0^3,6.0^19,24]pentacosa[8,16,18,24]tetraen]-15′-one-13′, 13′-dioxide] yielded an IC50 [1, 3] of 13.8 nM and an IC50 ([2]; OPM-2, 16 h, 16 h) of 912 nM.

In the case of `C=C1CCCC[C@@H](CC)S(=O)(=O)NC(=O)c2ccc3c(c2)N(C[C@@H]2CC[C@@H]12)C[C@@]1(CCCc2cc(Cl)ccc21)CO3` [Example 859, (1S,3′R,6′R,12′R)-6-chloro-12′-ethyl-7′-methylidene-3,4-dihydro-2H,15′H-spiro[naphthalene-1,22′-[20]oxa[13]thia[1,14]diazatetracyclo[14.7.2.0^3,6.0^19,24]pentacosa [16,18,24]trien]-15′-one 13′,13′-dioxide], the IC50 [1, 3] is reported as 15.8 nM and the IC50 ([2]; OPM-2, 16 h, 16 h) is reported as 11500 nM.

Work on `O=C1NS(=O)(=O)CCC/C=C/[C@@H](O)[C@@H]2CC[C@H]2CN2C[C@@]3(CCCc4cc(Cl)ccc43)COc3ccc1cc32` [Example 952, (1S,3′R,6′R,7′R,8′E)-6-chloro-7′-hydroxy-3,4-dihydro-2H,15′H-spiro[naphthalene-1,22′-[20]oxa[13]thia[1,14]diazatetracyclo[14.7.2.0^3,6.0^19,24]pentacosa [8,16,18,24]tetraen]-15′-one 13′,13′-dioxide] yielded an IC50 [1, 4] of 1.28 nM and an IC50 ([2]; 16 h incubation) of 6380 nM.

Work on `C[C@@H]1CC/C=C/[C@H](OCc2ncccn2)[C@@H]2CC[C@H]2CN2C[C@@]3(CCCc4cc(Cl)ccc43)COc3ccc(cc32)C(=O)NS1(=O)=O` [Example 956, (1S,3′R,6′R,7′S,8′E,12′R)-6-chloro-12′-methyl-7′-(2-pyrimidinylmethoxy)-3,4-dihydro-2H,15′H-spiro[naphthalene-1,22′-[20]oxa[13]thia[1,14]diazatetracyclo[14.7.2.0^3,6.0^19,24]pentacosa [8,16,18,24]tetraen]-15′-one 13′,13′-dioxide] yielded an IC50 [1, 4] of 0.275 nM and an IC50 ([2]; OPM-2, 16 h, 16 h incubation) of 211 nM.

`C[C@@H]1CC/C=C/[C@H](OCc2nnn(C)n2)[C@@H]2CC[C@H]2CN2C[C@@]3(CCCc4cc(Cl)ccc43)COc3ccc(cc32)C(=O)NS1(=O)=O` [Example 957, (1S,3′R,6′R,7′S,8′E,12′R)-6-chloro-12′-methyl-7′-((2-methyl-2H-tetrazol-5-yl)methoxy)-3,4-dihydro-2H,15′H-spiro[naphthalene-1,22′-[20]oxa[13]thia[1,14]diazatetracyclo[14.7.2.0^3,6.0^19,24]pentacosa [8,16,18,24]tetraen]-15′-one 13′,13′-dioxide] showed an IC50 [1, 4] of 0.442 nM and an IC50 ([2]; OPM-2, 16 h, 16 h incubation) of 308 nM.

With `C[C@@H]1CC/C=C/[C@H](OCc2nc[nH]n2)[C@@H]2CC[C@H]2CN2C[C@@]3(CCCc4cc(Cl)ccc43)COc3ccc(cc32)C(=O)NS1(=O)=O` [Example 958, (1S,3′R,6′R,7′S,8′E,12′R)-6-chloro-12′-methyl-7′-(4H-1,2,4-triazol-3-ylmethoxy)-3,4-dihydro-2H,15′H-spiro[naphthalene-1,22′-[20]oxa[13]thia[1,14]diazatetracyclo[14.7.2.0^3,6.0^19,24]pentacosa [8,16,18,24]tetraen]-15′-one 13′,13′-dioxide] the IC50 [1, 4] was 0.253 nM and the IC50 ([2]; OPM-2, 16 h, 16 h incubation) was 3890 nM.

Molecule `CC[C@@H]1CC/C=C/[C@H](OCc2nccn2C)[C@@H]2CC[C@H]2CN2C[C@@]3(CCCc4cc(Cl)ccc43)COc3ccc(cc32)C(=O)NS1(=O)=O` [Example 965, (1S,3′R,6′R,7′S,8′E,12′R)-6-chloro-12′-ethyl-7′-((1-methyl-1H-IMIDAZOL-2-yl)methoxy)-3,4-dihydro-2H,15′H-spiro[naphthalene-1,22′-[20]oxa[13]thia[1,14]diazatetracyclo[14.7.2.0^3,6.0^19,24]pentacosa [8,16,18,24]tetraen]-15′-one 13′,13′-dioxide] has an IC50 [1, 4] of 0.403 nM and an IC50 ([2]; OPM-2, 16 h, 16 h incubation) of 693 nM.
